Reference: ChEMBL document CHEMBL3580645, “Antiviral Activity of Flexibilane and Tigliane Diterpenoids from Stillingia lineata” (J Nat Prod, 2015)

How the values were obtained:
[1] = tested on: HCT-116; assay: Cytotoxicity against human HCT116 cells at 1 uM after 72 hrs by MTS assay; assay type: functional; settings: HCT-116, 72 h
[2] = tested on: MCF7; assay: Cytotoxicity against human MCF7 cells at 1 uM after 72 hrs by MTS assay; assay type: functional; settings: MCF7, 72 h
[3] = tested on: PC-3; assay: Cytotoxicity against human PC3 cells at 1 uM after 72 hrs by MTS assay; assay type: functional; settings: PC-3, 72 h
[4] = in vitro; settings: chlorocebus sabaeus, Vero cells
[5] = in vitro; settings: monkey, Vero cells
[6] = in vitro; settings: human, MT4 cells
[7] = in vitro; settings: human, MT4 cells; remark: listed apart in the source
[8] = tested on: Chikungunya virus; assay: microbe, parasite or virus in culture; settings: strain 899, Vero
[9] = tested on: Human immunodeficiency virus 1; assay: microbe, parasite or virus in culture; settings: Human immunodeficiency virus 1, 3B, MT4, 120 h
[10] = tested on: Human immunodeficiency virus 2; assay: microbe, parasite or virus in culture; settings: Human immunodeficiency virus 2, ISOLATE ROD, MT4, 120 h
[11] = in vitro; settings: human, MT4 cells; remark: listed apart in the source
[12] = tested on: Sindbis virus; assay: microbe, parasite or virus in culture; settings: strain HRsp, Vero
[13] = tested on: Semliki Forest virus; assay: microbe, parasite or virus in culture; settings: strain Vietnam, Vero
[14] = in vitro; settings: monkey, Vero cells; remark: listed apart in the source

Row | SMILES | inhibition at 1 µM [1] [%] | inhibition at 1 µM [2] [%] | inhibition at 1 µM [3] [%] | CC50 at 72 h [4] [µM] | selectivity ratio [5] | CC50 at 72 h [6] [µM] | selectivity ratio [7] | EC50 [8] [µM] | EC50 [9] [µM] | EC50 [10] [µM] | selectivity ratio [11] | EC50 [12] [µM] | EC50 [13] [µM] | selectivity ratio [14]
1 | CCC(C)C(=O)O[C@@]12[C@H](OC(C)=O)[C@@H](C)[C@]3(O)[C@@H]4C=C(C)C(=O)[C@@H]4CC(CO)=C[C@H]3[C@@H]1C2(C)C (stereo not given in full) | < 40 | < 40 | < 40 | 105 | 1.4 | 85 | 4 | 77 | > 85 | 13 | – | – | – | –
2 | CCC(C)C(=O)O[C@@]12[C@H](OC(C)=O)[C@@H](C)[C@@]3(O)[C@@H](C=C(CO)C[C@]4(O)C(=O)C(C)=C[C@@H]34)[C@@H]1C2(C)C (stereo not given in full) | < 40 | < 40 | < 40 | 134 | 41 | 102 | 949 | 3.3 | 0.271 | 0.107 | 376 | > 255 | > 255 | –
3 | CC/C=C/C=C/C=C\C(=O)O[C@@H]1[C@@H](C)[C@]2(O)[C@@H]3C=C(C)C(=O)[C@@H]3CC(CO)=C[C@H]2[C@@H]2C(C)(C)[C@]12OC(=O)CCC | < 40 | < 40 | < 40 | 7.1 | 5.1 | 8.4 | 33 | 1.4 | 0.233 | 0.174 | 36 | 5 | > 177 | 1.4
4 | CCCCCCCCC(=O)/C=C/C=C/C=C/C(=O)O[C@@]12C[C@@H](C)[C@@]3(O)[C@@H](C=C(CO)C[C@]4(O)C(=O)C(C)=C[C@@H]34)[C@@H]1C2(C)C | < 40 | < 40 | < 40 | 13 | 5.9 | 13 | 1430 | 2.2 | 0.043 | 0.018 | 299 | 11 | > 168 | 1.2
5 | CCC(C)C(=O)O[C@@]12C[C@@H](C)[C@@]3(O)[C@@H](C=C(CO)C[C@]4(O)C(=O)C(C)=C[C@@H]34)[C@@H]1C2(C)C (stereo not given in full) | < 40 | < 40 | < 40 | > 289 | > 240 | 116 | 2060 | 1.2 | 0.129 | 0.056 | 899 | > 289 | > 289 | –
6 | CCN(CC)CCCC(C)Nc1ccnc2cc(Cl)ccc12 (stereo not given) [CHLOROQUINE] | – | – | – | 89 | – | – | – | – | – | – | – | – | – | –
7 | O=c1[nH]cnc2c1ncn2[C@H]1CC[C@@H](CO)O1 [DIDANOSINE] | – | – | – | – | – | > 50 | > 5.2 | – | 10.8 | 9.6 | > 4.6 | – | – | –
8 | Nc1ccn([C@@H]2CS[C@H](CO)O2)c(=O)n1 [LAMIVUDINE] | – | – | – | – | – | > 87 | > 5.6 | – | 3.9 | 15.5 | > 22 | – | – | –
9 | Cc1ccnc2c1NC(=O)c1cccnc1N2C1CC1 [NEVIRAPINE] | – | – | – | – | – | > 15 | – | – | 0.01 | > 15 | 148 | – | – | –
10 | Cc1cn([C@H]2C[C@H](N=[N+]=[N-])[C@@H](CO)O2)c(=O)[nH]c1=O [ZIDOVUDINE] | – | – | – | – | – | > 25 | – | – | – | – | – | – | – | –
